Data from patent US11279733B2, “Peptide antibiotics” (priority 2017, dated 2022).
In brackets after ≈: the same amount, converted by molar mass. Where two headings read alike, the source gives them in different places. Positions of bridges follow the written chain, without caps; N, C: chain ends. Non-standard residues stand in square brackets, D forms with d. Residues, ends and D or L forms follow the SMILES beside them. *: point of attachment. Decanoyl(3R-OH) = CCCCCCC[C@@H](O)CC(=O)*; Undecanoyl = CCCCCCCCCCC(=O)*; Lauroyl = CCCCCCCCCCCC(=O)*; dDab = NCC[C@@H](N)C(=O)O; Orn = NCCC[C@H](N)C(=O)O; dDap = NC[C@@H](N)C(=O)O; Dab = NCC[C@H](N)C(=O)O; Dap = NC[C@H](N)C(=O)O

How the values were obtained:
A. baumannii ATCC 19606 = conditions: ATCC 19606
Summary of the method: (§1)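 Mid-log cultures grown in Mueller Hinton broth at 37° C were tested by 2-fold broth microdilution at 5×10^5 CFU/mL final. Compounds were dissolved in water and tested over a final range of 32 to 0.015 μg/mL.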

A. baumannii GN_093 PmxR = conditions: GN 093 PmxR
Summary of the method: as §1

E. coli ATCC 25922 = conditions: ATCC 25922
Summary of the method: as §1

K. pneumoniae ATCC 13883 = conditions: ATCC 13883
Summary of the method: as §1

[1] = test system: K. pneumoniae ATCC 700603, MDR; conditions: ATCC 700603
Summary of the method: as §1

[2] = test system: K. pneumoniae ATCC BAA-2146, NDM-1 pos; conditions: ATCC BAA-2146
Summary of the method: as §1

[3] = test system: K. pneumoniae GN_102 PmxR; conditions: GN 102 PmxR
Summary of the method: as §1

[4] = test system: K. pneumoniae GN_106, PmxR; conditions: GN 106, PmxR
Summary of the method: as §1

P. aeruginosa ATCC 27853 = conditions: ATCC 27853
Summary of the method: as §1

[5] = test system: P. aeruginosa GN_043, PmxR
Summary of the method: as §1

[6] = test system: P. aeruginosa GN_105, PmxR; conditions: GN 105, PmxR
Summary of the method: as §1

[7] = test system: S. aureus ATCC 25923, MSSA; conditions: ATCC 25923
Summary of the method: as §1

in vitro = conditions: human
Protocol: Cytotoxicity of the synthesised peptides was evaluated by comparison with commercially available colistin (polymyxin E), polymyxin B (Sigma chemical Co., St. Louis, Mo., U.S.A.) and synthetic octapeptin C4 by conducting lactate dehydrogenase (LDH) assay. CC50 values calculated based on curve fitting of dose dependent inhibition of cell growth represented the cytotoxicity of the peptide. Human kidney 2 (HK2) cells were seeded as 2000 cells per well in a 384 well cell culture plate in a final volume of 20 μL in DMEM/F12 medium (Invitrogen #11330057), in which 10% of FBS was added. Cells were incubated for 24 hours at 37° C., 5% CO2 to allow cells to attach to the plates. Similar conditions were employed for HEK293 and HepG2 cytotoxicity assays.
Cytotoxicity to HEK293 and HepG2 cells was determined using the resazurin assay (McMillian, M. K.; Li, L.; Parker, J. B.; Patel, L.; Zhong, Z.; Gunnett, J. W.; Powers, W. J.; Johnson, M. D. An improved resazurin-based cytotoxicity assay for hepatic cells; Cell Biol. Toxicol. 2002, 18, 157-173; O'Brien, J.; Wilson, I.; Orton, T.; Pognan, F. Investigation of the Alamar Blue (resazurin) fluorescent dye for the assessment of mammalian cell cytotoxicity. Eur. J. Biochem. 2000, 267, 5421-5426). In brief, HEK293 and HepG2 cells were seeded at 4000 cells/well in black-wall, clear-bottom 384-well plates (Corning, Australia) and incubated for 24 h at 37° C., 5% CO2. Compounds were then added into each well. After 24 h incubation, 5 μM resazurin was added per well and incubated at 37° C. for 2 h. Fluorescence intensity was then read using a Polarstar Omega with excitation/emission 560/590. The data was then analyzed using GraphPad Prism 6 software. CC50 values were determined using GraphPad Prism 6 software (Inc. La Jolla, Calif.).

Compound	MIC A. baumannii ATCC 19606 (A. baumannii ATCC 19606)	MIC A. baumannii GN_093 PmxR (A. baumannii GN_093 PmxR)	MIC E. coli ATCC 25922 (E. coli ATCC 25922)	MIC K. pneumoniae ATCC 13883 (K. pneumoniae ATCC 13883)	MIC K. pneumoniae ATCC 700603, MDR [1]	MIC K. pneumoniae ATCC BAA-2146, NDM-1 pos [2]	MIC K. pneumoniae GN_102 PmxR [3]	MIC K. pneumoniae GN_106, PmxR [4]	MIC P. aeruginosa ATCC 27853 (P. aeruginosa ATCC 27853)	MIC P. aeruginosa GN_043, PmxR ([5]; polymyxin-resistant)	MIC P. aeruginosa GN_105, PmxR [6]	MIC S. aureus ATCC 25923, MSSA [7]	CC50 at 24 h (in vitro)	MIC P. aeruginosa GN_043, PmxR ([5]; P. aeruginosa GN_043, PmxR)	further results
CCCCCCC[C@@H](O)CC(=O)N[C@H](CCN)C(=O)N[C@H]1CCNC(=O)[C@H](CC(C)C)NC(=O)[C@H](CN)NC(=O)[C@H](CCN)NC(=O)[C@H](CC(C)C)NC(=O)[C@@H](Cc2ccccc2)NC(=O)[C@H](CCN)NC1=O [compound 987, 3(R)OH-nC9CO-D-Dab-cyc[L-Dab-L-Dab-D-Phe-L-Leu-L-Dab-L-Dap-L-Leu]] ({Decanoyl(3R-OH)}-[dDab][Dab][Dab][dF]L[Dab][Dap]L; lactam 2-C)	1 µg/mL (≈ 0.971 µM)	8 µg/mL (≈ 7.76 µM)	8 µg/mL (≈ 7.76 µM)	4 µg/mL (≈ 3.88 µM)	4 µg/mL (≈ 3.88 µM)	4 µg/mL (≈ 3.88 µM)	16 µg/mL (≈ 15.5 µM)	16 µg/mL (≈ 15.5 µM)	2 µg/mL (≈ 1.94 µM)	2 µg/mL (≈ 1.94 µM)	4 µg/mL (≈ 3.88 µM)	16 µg/mL (≈ 15.5 µM)	> 300 µM		
CCCCCCC[C@@H](O)CC(=O)N[C@H](CCN)C(=O)N[C@H]1CCNC(=O)[C@H](CC(C)C)NC(=O)[C@H](CCCCN)NC(=O)[C@H](CCN)NC(=O)[C@H](CC(C)C)NC(=O)[C@@H](Cc2ccccc2)NC(=O)[C@H](CCN)NC1=O [compound 989, 3(R)OH-nC9CO-D-Dab-cyc[L-Dab-L-Dab-D-Phe-L-Leu-L-Dab-L-Lys-L-Leu]] ({Decanoyl(3R-OH)}-[dDab][Dab][Dab][dF]L[Dab]KL; lactam 2-C)	8 µg/mL (≈ 7.46 µM)	16 µg/mL (≈ 14.9 µM)	4 µg/mL (≈ 3.73 µM)	4 µg/mL (≈ 3.73 µM)	2 µg/mL (≈ 1.86 µM)	2 µg/mL (≈ 1.86 µM)	4 µg/mL (≈ 3.73 µM)	4 µg/mL (≈ 3.73 µM)	2 µg/mL (≈ 1.86 µM)	2 µg/mL (≈ 1.86 µM)	2 µg/mL (≈ 1.86 µM)	16 µg/mL (≈ 14.9 µM)	> 300 µM		
CCCCCCC[C@@H](O)CC(=O)N[C@H](CCN)C(=O)N[C@H]1CCNC(=O)[C@H](CC(C)C)NC(=O)[C@H](CCN)NC(=O)[C@H](CCN)NC(=O)[C@H](CC(C)C)NC(=O)[C@@H](Cc2ccccc2)NC(=O)[C@H](CCCN)NC1=O [compound 994, 3(R)OH-nC9CO-D-Dab-cyc[L-Dab-L-Orn-D-Phe-L-Leu-L-Dab-L-Dab-L-Leu]] ({Decanoyl(3R-OH)}-[dDab][Dab][Orn][dF]L[Dab][Dab]L; lactam 2-C)													> 300 µM		MIC, A. baumannii ATCC 19606 (A. baumannii ATCC 19606): 32 µg/mL (≈ 30.2 µM); MIC, A. baumannii Cl Ptyela 10073 4512:2, PmxR (A. baumannii GN_093 PmxR): 32 µg/mL (≈ 30.2 µM); MIC, E. coli ATCC 25922 (E. coli ATCC 25922): 8 µg/mL (≈ 7.56 µM); MIC, K. pneumoniae ATCC 13883 (K. pneumoniae ATCC 13883): 4 µg/mL (≈ 3.78 µM); MIC, K. pneumoniae ATCC 700603, MDR [1]: 8 µg/mL (≈ 7.56 µM); MIC, K. pneumoniae ATCC BAA-2146, NDM-1 pos [2]: 8 µg/mL (≈ 7.56 µM); MIC, K. pneumoniae Cl Koprana 10065 0661:1, PmxR [3]: 4 µg/mL (≈ 3.78 µM); MIC, K. pneumoniae Cl 138-16347-20362, PmxR [4]: 4 µg/mL (≈ 3.78 µM); MIC, P. aeruginosa ATCC 27853 (P. aeruginosa ATCC 27853): 2 µg/mL (≈ 1.89 µM); MIC, P. aeruginosa FADDI-PA070, PmxR ([5]; Table 5, polymyxin-resistant): >32 µg/mL; MIC, P. aeruginosa PA9704, PmxR [6]: 8 µg/mL (≈ 7.56 µM); MIC, S. Aureus ATCC 25923, MSSA [7]: 32 µg/mL (≈ 30.2 µM)
CCCCCCC[C@@H](O)CC(=O)N[C@H](CN)C(=O)N[C@H]1CCNC(=O)[C@H](CC(C)C)NC(=O)[C@H](CCN)NC(=O)[C@H](CCN)NC(=O)[C@H]([C@@H](C)O)NC(=O)[C@@H](Cc2ccccc2)NC(=O)[C@H](CCN)NC1=O [compound 9295, 3(R)OH-nC9CO-D-Dap-cyc[L-Dab-L-Dab-D-Phe-L-Thr-L-Dab-L-Dab-L-Leu]] ({Decanoyl(3R-OH)}-[dDap][Dab][Dab][dF]T[Dab][Dab]L; lactam 2-C)	4 µg/mL (≈ 3.93 µM)	4 µg/mL (≈ 3.93 µM)	2 µg/mL (≈ 1.96 µM)	4 µg/mL (≈ 3.93 µM)	4 µg/mL (≈ 3.93 µM)	4 µg/mL (≈ 3.93 µM)	2 µg/mL (≈ 1.96 µM)	4 µg/mL (≈ 3.93 µM)	2 µg/mL (≈ 1.96 µM)		4 µg/mL (≈ 3.93 µM)		> 300 µM	2 µg/mL (≈ 1.96 µM)	
CCCCCCCCCCC(=O)N[C@H](CN)C(=O)N[C@H]1CCNC(=O)[C@H](CC(C)C)NC(=O)[C@H](CCN)NC(=O)[C@H](CCN)NC(=O)[C@H](CC(C)C)NC(=O)[C@@H](Cc2ccccc2)NC(=O)[C@H](CCN)NC1=O [compound 9296, nC10CO-D-Dap-cyc[L-Dab-L-Dab-D-Phe-L-Leu-L-Dab-L-Dab-L-Leu]] (Undecanoyl-[dDap][Dab][Dab][dF]L[Dab][Dab]L; lactam 2-C)	16 µg/mL (≈ 15.6 µM)	32 µg/mL (≈ 31.1 µM)	4 µg/mL (≈ 3.89 µM)	4 µg/mL (≈ 3.89 µM)	2 µg/mL (≈ 1.94 µM)	4 µg/mL (≈ 3.89 µM)	2 µg/mL (≈ 1.94 µM)	4 µg/mL (≈ 3.89 µM)	2 µg/mL (≈ 1.94 µM)		32 µg/mL (≈ 31.1 µM)		63 µM	1 µg/mL (≈ 0.972 µM)	
CCCCCCCCCCCC(=O)N[C@H](CN)C(=O)N[C@H]1CCNC(=O)[C@H](CC(C)C)NC(=O)[C@H](CCN)NC(=O)[C@H](CCN)NC(=O)[C@H](CC(C)C)NC(=O)[C@@H](Cc2ccccc2)NC(=O)[C@H](CCN)NC1=O [compound 9297, nC11CO-D-Dap-cyc[L-Dab-L-Dab-D-Phe-L-Leu-L-Dab-L-Dab-L-Leu]] (Lauroyl-[dDap][Dab][Dab][dF]L[Dab][Dab]L; lactam 2-C)	16 µg/mL (≈ 15.3 µM)	8 µg/mL (≈ 7.67 µM)	2 µg/mL (≈ 1.92 µM)	4 µg/mL (≈ 3.84 µM)	4 µg/mL (≈ 3.84 µM)	8 µg/mL (≈ 7.67 µM)	8 µg/mL (≈ 7.67 µM)	8 µg/mL (≈ 7.67 µM)	4 µg/mL (≈ 3.84 µM)		8 µg/mL (≈ 7.67 µM)		33 µM	2 µg/mL (≈ 1.92 µM)	
